# Experimental data as given in US20230212251A1, “PEPTIDES DERIVED FROM SORTILIN” (UNIVERSITE DE LIMOGES, priority 2019, published 2023).
# Where two headings read alike, the source gives them in different places.
# Key:
# Format in all cases: cell-based
# cell nuclei = test: Subcellular distribution by indirect immunofluorescence; details: 2D and 3D confocal imaging
# Procedure: The cells are seeded on a 24-well plate on 14 mm diameter glass slides. After each treatment condition, the cells are fixed, either with the complete medium containing paraformaldehyde (PFA) at 3.7% for 20 min at 4° C., or with methanol at −20° C. for 5 min. With methanol the fixation is carried out by dehydration (denaturing of the proteins), while with the aldehydes (formaldehyde) the 3D structure of the protein is preserved (fixing by bridging). The phosphorylations are analyzed after fixing with PFA. After fixing, the cell layer is washed 3 times for 5 minutes with […] PBS. In the case of fixing with PFA, the cells are permeabilized with Triton X-100 at 0.1% in PBS for 10 min at 4° C., then washed again. With regard to fixing with methanol, this confers the advantage of fixing and permeabilizing the cells at the same time. […] Starting from the fixing stage, all the solutions are filtered beforehand over a 0.2 μm filter in order to eliminate the fluorescence artefacts and the background noise. […] Then, three washes of 5 min in PBS are carried out, before incubation of the secondary antibody coupled with an Alexa fluor 488® (green fluorescence) (Table 4) for 1 hour at ambient temperature in the PBS-BSA solution. […]
# [1] = test system: H3255 adenocarcinoma line (EGFR L858R); test: Pro-apoptotic effect, real-time IncuCyte Zoom imaging; details: H3255, peptide 1 μM, 96 hours real time
# Procedure: (§1) In order to study cell death by apoptosis, the cells are seeded at a concentration of 2000 cells per well in 100 μL of culture medium, in 96-well plates. 24 hours later, the cell medium is removed, then the cells are rinsed once with sterile PBS 1× before adding the culture medium containing the different treatments, including the peptide according to the invention at […], and the reagents necessary for analysis of cell death. These latter are: IncuCyte® Caspase-3/7 Green Reagent (ref: 4440; EssenBio) diluted to 1:1000 in the culture medium; IncuCyte® Annexin V Green Reagent (ref: 4642; EssenBio) diluted to 1:200 diluted in the culture medium. Image acquisition is then carried out by positioning the plates in the IncuCyte Zoom® system (Ref: EssenBio) for 96 hours. Four images per well are then obtained, in high definition, every two hours, with the ×10 objective and the phase-contrast and green channels. These acquisitions are carried out automatically and non-invasively. The data are processed automatically with the IncuCyte Zoom® Live-Cell Analysis System (ref: EssenBio).
# (§2) The pro-apoptotic effect of the peptide of sequence SEQ ID NO 7 at the concentration of 1 μM was measured in real time using the IncuCyte Zoom® system for 96 hours on the A549 line, on human fibroblasts (non-cancerous cells), as well as on two lines of adenocarcinomas H3255 and H1975, respectively presenting mutations of EGFR that are sensitive (L858R) and resistant (L858R/T790M) to the tyrosine kinase activity receptor inhibitors (TKI) used in the clinic via activation of two markers of apoptosis, namely annexin V and caspases 3 and 7. […] In fact, the levels of expression of these markers are identical under the conditions treated with the peptide and the control conditions. The peptide could therefore have a specific toxicity to cancer cells.
# [2] = test system: H1975 adenocarcinoma line (EGFR L858R/T790M); test: as above; details: H1975, peptide 1 μM, 96 hours real time
# Procedure: as §1, §2
# [3] = test system: human fibroblasts (non-cancerous cells); test: as above; details: peptide 1 μM, 96 hours real time, versus control
# Procedure: as §1, §2
# A549 line = test: as above; details: A549, peptide 1 μM, 96 hours real time
# Procedure: as §1, §2
# A549 cell line = test: Cell survival measured by XTT (Cell Proliferation Kit II); details: XTT dehydrogenase activity, read-out: CI50 (concentration giving 50% inhibition of cell activity)
# Procedure: The antineoplastic effect of the synthetic peptide, comprising Tat and a V5 tag of sequence SEQ ID NO 7 was tested on the A549 cell line (adenocarcinoma line having no mutation on the EDFR). A concentration range (0 to 10 μM) of the synthetic peptide of sequence SEQ ID NO 7 according to the invention was incubated for 24, 48 and 72 hours in the cell medium and the dehydrogenase activity thereof (proxy for viability) was measured (Cell Proliferation Kit II (XTT)-Roche) at the end of each incubation, i.e. at 24, 48 and 72 hours. Analysis of the graph representing the activity as a function of the log of the synthetic peptide concentration made it possible to establish CI50 values corresponding to the concentrations for which the peptide results in 50% inhibition of cell activity. These latter are respectively equal to 1.42, 1.52 and 0.57 μM for incubation times of 24, 48 and 72 hours.
# cells = test: Cell penetration test via western blot; details: 0 to 500 nM in complete culture medium, 24 hours' treatment
# Procedure: 3. Extraction of the proteins under denaturing conditions Extraction of the whole proteins is carried out directly on the cell layers, after eliminating the supernatants and rinsing the cells in PBS 1×, or even on cell pellets previously stored at −80° C. It is carried out by incubating the cells with the Laemmli lysis buffer (62.5 mM Tris-HCl ref: 11814273001 ROCHE, pH 6.8, 2% SDS ref: L-4509, Sigma-Aldrich, 25% glycerol ref: G5516, Sigma-Aldrich) made up with 1% (v/v) protease inhibitor cocktail (ref: P8340-1ML, Sigma-Aldrich) and 1% (v/v) phosphatase inhibitor cocktail (ref: P0044-1ML, Sigma-Aldrich), in the proportions […] of buffer for 1.10^6 cells for 30 min over ice. In the case of extraction on the cell layer, a scraper (ref: 179693PK, Nunc, ThermoFisher) is used to collect the cells in the lysis buffer. Lysis is then completed by ultrasound parametered at 60 Hz, amplitude 2 s, for 1 minute (ref: SONIVCX-130-220, VWR). The lysates are then centrifuged at 17,000×g (ref: 75002442, Sorvall, ThermoFisher) for 20 min at 4° C., the supernatant containing the proteins is transferred to a sterile 1.5 mL tube (ref: 0030120086, Eppendorf), and the proteins are assayed by the Bradford method.
# 5. […] The concentration of the polyacrylamide gels varies from 8 to 15% as a function of the molecular weight of the proteins to be separated and analyzed. […]
sequence,measurement,setting,value
GRKKRRQRRRPPQVLIVKKYVCGGRFLVHRYSVLQQHAEANGVDGVDALDTASHTNKSGYHDDSDEDLLEGKPIPNPLLGLDST [SEQ ID NO 7],"subcellular distribution of the peptide (anti-V5 immunofluorescence, DAPI)",cell nuclei,punctiform nuclear distribution
same,level of annexin V (marker of apoptosis),[1],increase
same,level of caspases 3 and 7 (marker of apoptosis),[1],increase
same,level of annexin V (marker of apoptosis),[2],increase
same,level of caspases 3 and 7 (marker of apoptosis),[2],increase
same,activation of annexin V (marker of apoptosis),[3],does not seem to lead to activation
same,activation of caspases 3 and 7 (marker of apoptosis),[3],does not seem to lead to activation
same,level of annexin V (marker of apoptosis),A549 line,increase
same,level of caspases 3 and 7 (marker of apoptosis),A549 line,increase
same,IC50,"A549 cell line; A549, 24 hours incubation",1.42 µM
same,IC50,"A549 cell line; A549, 48 hours incubation",1.52 µM
same,IC50,"A549 cell line; A549, 72 hours incubation",0.57 µM
same,quantity of intracellular peptide detected in the cell lysate (anti-V5 western blot),cells,dose-dependent peptide penetration
